This note sets out measurements from article PMC11605156, “Triterpenoids from Ganoderma lucidum inhibit cytochrome P450 enzymes interfering with the metabolic process of specific clinical drugs” (Frontiers in Pharmacology, 2024).

The test system of data set [1] is CYP3A4, CYP2B6, CYP2C9. In words: in vitro. Type of data set: in vitro ADME. The note with it: human. The protocol: Bupropion, artemisinin, efavirenz and sertraline are metabolized by CYP2B6. Diclofenac, valsartan, glimepiride and glibenclamide are metabolized by CYP2C9. Midazolam, imatinib, simvastatin and diltiazem are metabolized by CYP3A4.
Table S2. Information of clinical drugs
CYP subtype Drugs Metabolite Concentration Incubation time
CYP1A2 Melatonin 6-hydroxyl-melatonin 5 μM 30 min
Clozaril Demethyl-clozaril 10 μM 20 min
Riluzole Hydroxy-riluzole 5 μM 60 min
Phenacetin Deacetyl-phenacetin 40 μM 30 min
CYP2B6 Bupropion 4'-hydroxyl-bupropion 75 μM 30 min
Artemisinin Dihydroartemisinin 10 μM 30 min
Sertraline Demethyl-sertraline 5 μM 30 min
Efavirenz 8-hydroxyl-efavirenz 20 μM 30 min
CYP2C9 Diclofenac 4'-hydroxyl-diclofenac 4 μM 30 min
Valsartan 4-hydroxyl-valsartan 30 μM 30 min
Glimepiride Hydroxyl-glimepiride 50 μM 30 min
Glibenclamide Hydroxyl-glibenclamide 50 μM 30 min
CYP3A4 Midazolam 1'-hydroxyl-midazolam 5 μM 30 min
Simvastatin 6'-β-hydroxyl-simvastatin 10 μM 30 min
Diltiazem Demethyl-diltiazem 10 μM 30 min
Imatinib Demethyl-imatinib 5 μM 30 min

Data set [2] addresses T1, CYP2A6 (Homo sapiens, UniProt P11509).
T1 sequence (P11509 1-494): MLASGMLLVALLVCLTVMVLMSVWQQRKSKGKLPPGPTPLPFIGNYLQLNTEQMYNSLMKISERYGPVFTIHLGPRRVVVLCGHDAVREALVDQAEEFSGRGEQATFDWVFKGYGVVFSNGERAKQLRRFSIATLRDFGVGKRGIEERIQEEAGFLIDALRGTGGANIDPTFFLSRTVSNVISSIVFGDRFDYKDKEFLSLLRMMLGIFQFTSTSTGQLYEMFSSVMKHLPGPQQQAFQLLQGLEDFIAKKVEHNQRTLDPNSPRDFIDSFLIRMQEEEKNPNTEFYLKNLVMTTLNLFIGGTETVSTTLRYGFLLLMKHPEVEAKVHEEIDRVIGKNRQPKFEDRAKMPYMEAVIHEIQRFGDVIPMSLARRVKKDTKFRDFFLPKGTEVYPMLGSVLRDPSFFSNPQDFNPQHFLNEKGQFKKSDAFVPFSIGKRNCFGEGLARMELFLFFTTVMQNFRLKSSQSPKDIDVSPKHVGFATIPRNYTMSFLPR
As to the kind of experiment: CYP2A6 inhibition, coumarin probe in human liver microsomes. As to conditions: human, human liver microsomes, pH 7.4, probe coumarin 2 μM, Residual activity (%) CYP2A6, HLM 0.5 mg/mL. In general terms: Microsomes from liver hold many membrane-bound enzymes, among them those of drug oxidation.

Data set [3] has as its target CYP2C9 (Homo sapiens, UniProt P11712). In words: CYP2C9 inhibition, probe/drug metabolism in human liver microsomes.
The target of data set [4] is T2, CYP1A2 (Homo sapiens, UniProt P05177).
T2 sequence (P05177 1-516): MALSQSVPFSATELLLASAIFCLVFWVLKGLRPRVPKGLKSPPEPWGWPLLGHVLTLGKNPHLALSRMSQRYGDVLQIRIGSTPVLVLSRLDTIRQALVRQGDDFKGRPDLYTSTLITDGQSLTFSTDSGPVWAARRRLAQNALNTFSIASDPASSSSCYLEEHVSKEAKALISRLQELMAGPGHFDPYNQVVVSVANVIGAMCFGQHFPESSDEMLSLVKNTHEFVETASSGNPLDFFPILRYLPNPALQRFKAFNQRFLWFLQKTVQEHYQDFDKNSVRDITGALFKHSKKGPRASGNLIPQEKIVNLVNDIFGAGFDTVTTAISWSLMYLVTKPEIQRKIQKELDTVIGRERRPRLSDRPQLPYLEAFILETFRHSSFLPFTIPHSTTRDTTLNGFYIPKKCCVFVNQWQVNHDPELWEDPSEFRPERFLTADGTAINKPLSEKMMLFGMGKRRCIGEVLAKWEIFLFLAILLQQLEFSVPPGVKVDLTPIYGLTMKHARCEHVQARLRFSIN
In words: CYP1A2 inhibition, probe/drug metabolism in human liver microsomes (LC-MS/MS). As to conditions: human, human liver microsomes, pH 7.4, probe phenacetin 40 μM, Residual activity (%) CYP1A2, HLM 0.5 mg/mL, phenacetin 40 μM, 30 min.

For data set [5], the target named is CYP2D6 (Homo sapiens, UniProt P10635). In words: CYP2D6 inhibition, dextromethorphan probe in human liver microsomes. The note with it: human, human liver microsomes, pH 7.4, probe dextromethorphan 5 μM, Residual activity (%) CYP2D6, HLM 0.5 mg/mL.
In data set [6] the target is CYP2C19 (Homo sapiens, UniProt P33261). As to the kind of experiment: CYP2C19 inhibition, S-mephenytoin probe in human liver microsomes.
The target of data set [7] is CYP3A4 (Homo sapiens, UniProt P08684). In words: CYP3A4 inhibition, probe/drug metabolism in human liver microsomes.
CYP3A4, sequence (P08684 whole entry): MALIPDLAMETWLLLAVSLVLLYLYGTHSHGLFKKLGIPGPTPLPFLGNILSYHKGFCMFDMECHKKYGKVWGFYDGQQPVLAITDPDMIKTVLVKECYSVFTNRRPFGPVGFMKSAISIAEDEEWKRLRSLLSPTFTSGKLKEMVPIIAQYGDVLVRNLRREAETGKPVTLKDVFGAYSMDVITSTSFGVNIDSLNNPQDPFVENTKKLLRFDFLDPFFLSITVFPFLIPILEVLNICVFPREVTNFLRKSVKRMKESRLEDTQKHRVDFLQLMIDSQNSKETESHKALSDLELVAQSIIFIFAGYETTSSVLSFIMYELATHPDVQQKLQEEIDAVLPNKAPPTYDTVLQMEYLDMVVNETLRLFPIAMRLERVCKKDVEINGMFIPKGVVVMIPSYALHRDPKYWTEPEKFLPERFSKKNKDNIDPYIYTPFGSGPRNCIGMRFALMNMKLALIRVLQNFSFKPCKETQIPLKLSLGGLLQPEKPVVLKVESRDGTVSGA

CYP2C9, sequence (P11712 whole entry): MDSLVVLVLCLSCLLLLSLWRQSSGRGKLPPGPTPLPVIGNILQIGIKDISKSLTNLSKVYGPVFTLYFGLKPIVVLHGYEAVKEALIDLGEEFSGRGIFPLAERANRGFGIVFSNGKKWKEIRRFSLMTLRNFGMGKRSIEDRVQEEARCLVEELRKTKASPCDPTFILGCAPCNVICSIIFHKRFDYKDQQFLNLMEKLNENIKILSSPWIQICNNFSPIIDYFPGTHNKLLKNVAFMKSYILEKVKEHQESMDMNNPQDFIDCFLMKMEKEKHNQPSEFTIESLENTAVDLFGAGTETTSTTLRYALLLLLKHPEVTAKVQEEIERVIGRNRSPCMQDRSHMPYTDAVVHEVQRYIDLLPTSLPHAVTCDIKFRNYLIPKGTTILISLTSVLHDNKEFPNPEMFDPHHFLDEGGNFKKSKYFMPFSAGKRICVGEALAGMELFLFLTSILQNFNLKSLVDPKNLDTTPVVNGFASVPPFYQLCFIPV
CYP2C19, sequence (P33261 whole entry): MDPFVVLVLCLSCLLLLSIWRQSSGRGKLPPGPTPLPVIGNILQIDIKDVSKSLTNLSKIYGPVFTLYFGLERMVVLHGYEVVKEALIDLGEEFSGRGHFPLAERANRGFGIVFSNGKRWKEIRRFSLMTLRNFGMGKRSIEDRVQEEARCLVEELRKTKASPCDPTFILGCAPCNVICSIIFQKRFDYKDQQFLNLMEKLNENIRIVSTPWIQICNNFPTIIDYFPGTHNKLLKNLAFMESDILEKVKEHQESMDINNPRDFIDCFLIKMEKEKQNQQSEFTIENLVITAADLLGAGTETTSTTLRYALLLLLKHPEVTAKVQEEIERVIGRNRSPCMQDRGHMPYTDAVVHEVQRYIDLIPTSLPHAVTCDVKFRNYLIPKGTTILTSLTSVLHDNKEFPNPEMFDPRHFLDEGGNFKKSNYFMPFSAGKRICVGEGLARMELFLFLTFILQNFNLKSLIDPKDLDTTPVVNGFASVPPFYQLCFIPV
CYP2D6, sequence (P10635 whole entry): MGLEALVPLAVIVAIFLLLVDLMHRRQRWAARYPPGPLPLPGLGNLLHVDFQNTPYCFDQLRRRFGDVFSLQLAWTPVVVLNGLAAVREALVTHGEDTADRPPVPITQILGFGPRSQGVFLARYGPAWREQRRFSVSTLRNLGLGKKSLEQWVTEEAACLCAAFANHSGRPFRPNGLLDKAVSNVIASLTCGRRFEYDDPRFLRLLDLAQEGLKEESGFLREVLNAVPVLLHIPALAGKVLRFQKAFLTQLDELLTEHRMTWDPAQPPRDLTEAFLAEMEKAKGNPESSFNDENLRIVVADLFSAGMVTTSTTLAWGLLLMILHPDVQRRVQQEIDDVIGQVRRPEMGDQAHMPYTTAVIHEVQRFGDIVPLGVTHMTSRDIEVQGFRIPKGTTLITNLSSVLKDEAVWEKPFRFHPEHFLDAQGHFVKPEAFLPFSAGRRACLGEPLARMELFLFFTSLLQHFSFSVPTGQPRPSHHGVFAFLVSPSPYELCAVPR

Consider `CC(CCC(O)C(C)(O)CO)C1CCC2(C)C3=C(C(=O)CC12C)C1(C)CCC(=O)C(C)(C)C1CC3` (stereo not shown) [Compound 25, ganodrol C], for which the IC50 at 30 min is 4.5 to 25.3 µM in data set [1] and 11.4 µM in data set [3] (human, human liver microsomes, pH 7.4, probe diclofenac 4 μM, IC50 against CYP 2C9, substrate diclofenac 4 μM, HLM). Moreover, the activity at 30 min in data set [2] was 70.1 ± 2.15%; in data set [3] (human, human liver microsomes, pH 7.4, probe diclofenac 4 μM, Residual activity (%) CYP2C9, HLM 0.5 mg/mL, diclofenac 4 μM, 30 min), 32 ± 2.74%; in data set [4] it was 104 ± 18.9%; in data set [5], 68.22 ± 0.44%; in data set [6] (human, human liver microsomes, pH 7.4, probe S-mephenytoin 50 μM, Residual activity (%) CYP2C19, HLM 0.5 mg/mL, S-mephenytoin 50 μM, 30 min), 39.2 ± 4.83%; in data set [7] (human, human liver microsomes, pH 7.4, probe midazolam 5 μM, Residual activity (%) CYP3A4, HLM 0.5 mg/mL, midazolam 5 μM, 30 min) it was 30.1 ± 1.54%. In addition, the IC50 is 10.3 ± 0.12 µM in data set [3] (IC50 against metabolism of glibenclamide mediated by CYP2C9, substrate glibenclamide 50 μM, 30 min); 12.3 ± 0.43 µM in data set [3] (IC50 against metabolism of glimepiride mediated by CYP2C9, substrate glimepiride 50 μM, 30 min); 14.3 ± 1.14 µM in data set [3] (IC50 against metabolism of valsartan mediated by CYP2C9, substrate valsartan 30 μM, 30 min); 15.4 µM in data set [6]; 4.78 µM in data set [7] (IC50 against CYP 3A4, substrate midazolam 5 μM, HLM); 5.12 ± 0.56 µM in data set [7] (IC50 against metabolism of diltiazem mediated by CYP3A4, substrate diltiazem 10 μM, 30 min). Besides, the IC50 amounted to 7.57 ± 0.2 µM in data set [7] (IC50 against metabolism of imatinib mediated by CYP3A4, substrate imatinib 5 μM, 30 min) and 4.5 ± 0.48 µM in data set [7] (IC50 against metabolism of simvastatin mediated by CYP3A4, substrate simvastatin 10 μM, 30 min).

For orientation: IC50 means the point on the concentration scale where inhibition reaches its midpoint. The low end stands for higher potency, the high end for lower potency.
